Patent publication US5358945A, “Pyrimidine compound and pharmaceutically acceptable salts thereof” (Mitsui Petrochemical Industries, Ltd., priority 1990, dated 1994)
Where a name gives a salt, the structure may show the parent alone.

What was measured:
Mouse neuro 2a cells = test: Neurite outgrowth of mouse neuroblastoma neuro 2a cells (Table 7); assay type: cell-based; settings: 0.3 mM; mean ± S.D.; hydrochloride
In short: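 Neuro-2a cells seeded at 1,000 cells/well in DMEM with 10% FCS, cultured one day at 37 °C, 5% CO2, then 24 h with compound (up to 6 concentrations, triplicate). Fixed with glutaraldehyde, methylene blue stained; percentage of cells bearing neurites ≥2× cell long diameter counted microscopically (>200 cells).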

[1] = system: Mouse neuroblastoma cells NS-20Y; test: Neurite appearance in mouse neuroblastoma NS-20Y cells (Table 8); assay type: cell-based; settings: hydrochloride;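 further: cells grown in polyornithine-coated dishes, with timing counted from the start of culture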
crushed sciatic nerves = test: Recovery of the interdigital distance in rats with crushed sciatic nerves (Table 9); assay type: in vivo, rat (male Wistar)
Procedure: Rats whose sciatic nerves were crushed were prepared as a model for peripheral nervous disorders and the effects of the compounds of this invention on it were tested. It was made clear that the compounds of the present invention have an effect of promoting recovery of the interdigit distance and the weight of the soleus muscle to normal values.
Curative effect on rats with crushed sciatic nerves: The curing effect of the compound of the invention was tested on rats having crushed sciatic nerves as a model of peripheral nervous disorder using (1) a change in the action of the hind paw with the crushed sciatic nerves and (2) a change in the weight of the muscle as an index of the course of degeneration and regeneration of peripheral nerves.
In the experiment, male Wistar rats (6 weeks old), 10-15 per group, were used. The sciatic nerves were crushed by a method similar to the method of Yamatsu et al. (see Kiyomi Yamatsu, Takenori Kaneko, Akifumi Kitahara and Isao Ohkawa, Journal of Japanese Pharmacological Society, 72, 259-268 (1976) and the method of Hasegawa et al. (see Kazuo Hasegawa, Naoji Mikuni and Yutaka Sakai, Journal of Japanese Pharmacological Society, 7 4 721-734 (1978). Specifically, under anesthesia with pentobarbital (40 mg/kg, i.p.), the left side sciatic nerve was exposed at the femur and a given site was crushed with hemostat (2ram in width) for 30 seconds. After crushing, the operated site was immediately sitched. Vincristine, known to delay the regeneration of peripheral nerves, was administered intraperitoneally at 100 μg/kg per week.
Test compounds selected from the compounds of the invention were administered intraperitoneally or orally once a day from the day of operation to the 30th day. A group to which 0.9% saline was administered was used as control.
According to the method of Hasegawa [Hasegawa, K., Experientia, 34, 750-751 ( 1978)], the distance between the first and fifth digits of the hind paw was measured and the ratio of a crushed-side distance to a normal-side distance was calculated.
*Compound 274 is orally administered to a group of rats with the crushed

mouse = test: Acute toxicity in mouse (Table 10); assay type: in vivo; settings: in vivo, ip
Procedure: The acute toxicity of the compounds of the invention was examined by the following method.
Male ddy-strain 5-week old mice, 4-6 per group, were used as experimental animals. Each of the compounds was dissolved or suspended in saline and administered perorally (p.o.) or intraperitoneally (i.p.), and the toxicity of the compound was assessed 24 hours after the administration.

With `O=C1CCCN1c1ccnc(N2CCCCC2)n1` [Compound 274, 4-(2-oxopyrrolidino)-2-(4-piperidino) pyrimidine hydrochloride] the “Ratio of the number of cells having neurites with a length of at least two times as large as the diameter of cells to the total number of cells” value (Mouse neuro 2a cells) was 25.8 ± 3.5%, the “The number of cells in which neurites appeared/Total number of cells” value ([1]; 24 hour, 0.1 mM) was 4/50 and the “The number of cells in which neurites appeared/Total number of cells” value ([1]; 24 hour, 0.2 mM) was 6/50. The “The number of cells in which neurites appeared/Total number of cells” value ([1]; 48 hour, 0.2 mM) was 4/50, the “The number of cells in which neurites appeared/Total number of cells” value ([1]; 48 hour, 0.5 mM) was 6/50 and the “Rate of recovery of the interdigital distance” value (“Rate” for short) (crushed sciatic nerves; 7.5 mg/kg orally, 7 days after crush) was 42.6 ± 6.8%. For the same molecule, the “Rate” value (crushed sciatic nerves; 7.5 mg/kg orally, 14 days after crush) was 37.6%, the “Rate” value (crushed sciatic nerves; 7.5 mg/kg orally, 16 days after crush) was 38.4% and the “Rate” value (crushed sciatic nerves; 7.5 mg/kg orally, 18 days after crush) was 40.9 ± 6.2%. For the same molecule, the “Rate” value (crushed sciatic nerves; 7.5 mg/kg orally, 20 days after crush) was 45.6 ± 14.0%, the “Rate” value (crushed sciatic nerves; 7.5 mg/kg orally, 22 days after crush) was 46.8 ± 13.2% and the “Rate” value (crushed sciatic nerves; 7.5 mg/kg orally, 24 days after crush) was 48.2%. For the same molecule, the “Rate” value (crushed sciatic nerves; 7.5 mg/kg orally, 26 days after crush) was 54.8%, the “Rate” value (crushed sciatic nerves; 7.5 mg/kg orally, 28 days after crush) was 66.9 ± 19.6% and the “Rate” value (crushed sciatic nerves; 7.5 mg/kg orally, 30 days after crush) was 64.0 ± 21.2%. The “Rate” value (crushed sciatic nerves; 15 mg/kg orally, 7 days after crush) was 39.8 ± 5.2%, the “Rate” value (crushed sciatic nerves; 15 mg/kg orally, 14 days after crush) was 38.2% and the “Rate” value (crushed sciatic nerves; 15 mg/kg orally, 16 days after crush) was 39.4%. For the same molecule, the “Rate” value (crushed sciatic nerves; 15 mg/kg orally, 18 days after crush) was 40.5 ± 4.2%, the “Rate” value (crushed sciatic nerves; 15 mg/kg orally, 20 days after crush) was 46.7 ± 7.3% and the “Rate” value (crushed sciatic nerves; 15 mg/kg orally, 22 days after crush) was 50.0 ± 10.0%. For the same molecule, the “Rate” value (crushed sciatic nerves; 15 mg/kg orally, 24 days after crush) was 56.8%, the “Rate” value (crushed sciatic nerves; 15 mg/kg orally, 26 days after crush) was 62.2% and the “Rate” value (crushed sciatic nerves; 15 mg/kg orally, 28 days after crush) was 65.5 ± 19.8%. For the same molecule, the “Rate” value (crushed sciatic nerves; 15 mg/kg orally, 30 days after crush) was 70.1 ± 21.4%, the “Rate” value (crushed sciatic nerves; 30 mg/kg orally, 7 days after crush) was 38.8 ± 4.4% and the “Rate” value (crushed sciatic nerves; 30 mg/kg orally, 14 days after crush) was 39.2%. For the same molecule, the “Rate” value (crushed sciatic nerves; 30 mg/kg orally, 16 days after crush) was 38.3%, the “Rate” value (crushed sciatic nerves; 30 mg/kg orally, 18 days after crush) was 40.8 ± 4.5% and the “Rate” value (crushed sciatic nerves; 30 mg/kg orally, 20 days after crush) was 43.8 ± 6.7%. For the same molecule, the “Rate” value (crushed sciatic nerves; 30 mg/kg orally, 22 days after crush) was 47.8 ± 11.5%, the “Rate” value (crushed sciatic nerves; 30 mg/kg orally, 24 days after crush) was 57.0% and the “Rate” value (crushed sciatic nerves; 30 mg/kg orally, 26 days after crush) was 60.9%. For the same molecule, the “Rate” value (crushed sciatic nerves; 30 mg/kg orally, 30 days after crush) was 73.6 ± 20.0% and the “Estimated LD50” value (mouse) was 250 to 500 mg/kg.
